The conditions of series [1]: Mouse, cited from earlier work; for T½: parent drug (SASP for Sulfazaline).
The conditions of series [2]: Human, cited from earlier work.
For a further series, the system named is Mayo PDX GBM12 cells. Nature of the series: GSH/GSSG ratio by metabolite profiling (LC-MS/MS). The class given is cell-based, human. The settings on record: GBM12, 24 hour exposure, means±SD of four experiments.
Series [3] relates to GBM12 cells. As to the kind of experiment: RNAseq transcriptome and pathway analysis after erlotinib. The class given is cell-based, human. From the text:
These q-values are corrected from p-values of the hypergeometric test, for multiple testing using the false discovery rate (FDR) method.

In a further series the test system is p21. As to the kind of experiment: p21 response to erlotinib (FIG. 12). The note with it: in response to erlotinib. The class given is cell-based. The text has this: p21. p21Cip1/WAF1 is a cyclin-dependent kinase inhibitor that regulates the cell cycle and acts as an antioxidant. The antioxidant function of p21 is mediated through stabilization of Nrf2. Thus, p21 is an interesting target for study.

The next series relates to Keap1. As to the kind of experiment: Cellular level of total Keap1. In kind it is cell-based. The note with it: data not shown.
Series [4] can be described thus: Toxicity in mice by gavage. The note with it: 50-100 mg/kg by gavage.
The subject of a further series is GBM 12 or GBM6 cells. Nature of the series: ROS by MitoTracker Red CM-H2XRos. In kind it is cell-based, human. The settings on record: erlotinib 1 uM, 24 hours. From the text:
Oxidative stress. Without wishing to be bound by theory, it is hypothesized that a sudden inhibition of EGFR signaling may increase oxidative stress and thus activate Nrf2. Previous studies have reported that EGFR inhibition leads to increased oxidative stress in lung and head and neck cancers (Orcutt, et al. (2011) Erlotinib-mediated inhibition of EGFR signaling induces metabolic oxidative stress through NOX4, Cancer Res 71, 3932-3940; Qian, et al. (2009) Clin Exp Pharmacol Physiol 36, 487-494). […] MitoTracker® Red CM-H2XRos (Fisher), a reduced nonfluorescent dye which is taken up passively by living cells, will be used. In the mitochondria, the dye is oxidized by superoxide, resulting in the emission of red fluorescence.
MitoTracker® Red CM-H2XRos (Fisher) was added to culture media at a concentration of 100 nM and incubated at 37° C. in a humidified incubator containing 5% CO2 for 30 minutes, the cells were then fixed in ice-cold methanol for 15 min at −20° C. followed by fluorescence microscopy.

A further series has as its system glioma cells. As to the kind of experiment: Cell survival/viability assays in glioma cells (general statements). In kind it is cell-based. The note with it: for synergy with EGFR inhibition in cell survival assays: FIG. 5.
In a further series the test system is preclinical GBM models. As to the kind of experiment: Preliminary orthotopic GBM experiments (FIG. 6, general statements). The class given is in vivo.
The test system of series [5] is GBM12 cells. As to the kind of experiment: Alamarblue cell viability assay, GBM12. The settings on record: GBM12, 72 hours; ML385 1 μm, INH 1 μm, sulfasalazine 5 μm. In kind it is cell-based, human.
Description: ML385 (1 μm) and isoniazid (INH 1 μm) are Nrf2 inhibitors while Erastin and sulfasalazine (5 μm) are xCT inhibitors.
For series [6] the following is noted: in vivo; cited from earlier work.
The mark [7] stands for this setting: parent drug (SASP for Sulfazaline).
Where [8] appears, read: parent drug (SASP for Sulfazaline), dose per Table 5.
Where [9] appears, read: TNF inhibitor added to erlotinib.

This is an account of results in patent US20230130791A1, “A Combined Inhibition of EGFR and NRF2 in The Treatment of Malignant Glioma” (United States Government as represented by the Department …, priority 2020, published 2023).

Where two headings read alike, the source gives them in different places.

Description for Mayo PDX GBM12 cells: Determination of GSH levels will be undertaken at a Biochemistry Core Facility at UT Southwestern using metabolite profiling as previously described (Krall, et al. (2017) KEAP1 loss modulates sensitivity to kinase targeted therapy in lung cancer, Elife 6; Yuan, et al. (2012) Nat Protoc 7, 872-881). Samples will be analyzed by liquid chromatography tandem mass spectrometry (LC-MS/MS) using positive ion/negative ion polarity switching via selected reaction monitoring (SRM) on a 5500 QTRAP hybrid triple quadrupole mass spectrometer. Peaks will be integrated using MultiQuant 2.1 data analysis software (AB/SCIEX). The ratio of reduced intracellular glutathione to oxidized glutathione is a measure of oxidative stress.
Data are presented as means±SD of four experiments. […] GSH, reduced glutathione; GSSG, oxidized glutathione.

For the compound `CN(C)C/C=C/C(=O)Nc1cc2c(Nc3ccc(F)c(Cl)c3)ncnc2cc1O[C@H]1CCOC1` [Afatinib, afatinib], the AUC entry in series [1] (30 mg/kg QD) is “(2375 nM * hr”; in [2] (setting [7]), “(~1-2 μM * hr”; in series [2] (setting [8]), 459 to 956 ng·h/mL. Also, the Cmax in series [1] (30 mg/kg QD) is 417 nM; in [2] (setting [7]), 30 to 40 ng/mL; in series [2] (read-out: Cmax), 60 to 80 nM. Also, the T½ in series [1] was 5 h; in series [2] (setting [7]) it was 60.3 h.
As for `C#Cc1cccc(Nc2ncnc3cc(OCCOC)c(OCCOC)cc23)c1` [Erlotinib, erlotinib], in the series on Mayo PDX GBM12 cells, the GSH/GSSG is 68.5 ± 15.2. Moreover, the “Genes, Erl-induced pathway” value was determined as 42 in the series with GBM12 cells [3] (Axon guidance); 35 with GBM12 cells [3] (Ectoderm Differentiation); 14 in the series with GBM12 cells [3] (Glutathione conjugation); 40 with GBM12 cells [3] (NRF2 pathway); 23 with GBM12 cells [3] (Validated targets of C-MYC transcriptional repression); 19 with GBM12 cells [3] (Validated transcriptional targets of Tap63 isoforms). Moreover, in the series with GBM12 cells [3] (erlotinib 1 μM, 24 hours, GBM 12 cells), the “genes upregulated by RNAseq” value worked out at 3635. Moreover, the “GPX3 expression in GBM” value with GBM12 cells [3] (in response to erlotinib (FIG. 3)) was “upregulated”. The p21 level entry in the series on p21 was “not upregulated”. Also, in the series with Keap1, the “cellular level of total Keap1” value is on record as “not changed”. Besides, the exposure (AUC) in series [1] (12.5 mg/kg QD) is 27,042 ng * hr/ml; in series [2] (setting [8]), 11,860 ng * hr/ml. The values for the Cmax in series [1] (12.5 mg/kg QD) and in [2] (setting [7]) were 3,513 ng/mL and 872 ng/mL, respectively. In [1], the T½ was 3.1 h. The toxicity entry in series [4] is recorded as “without significant toxicity”. The “ROS (Mitotracker dye)” value with GBM 12 or GBM6 cells is reported as “increase in ROS”.
Take `CCc1cc(C(N)=S)ccn1` [Ethionamide, ethionamide]: the “synergy with EGFR inhibition, cell viability assay” value in the series on glioma cells (erlotinib 1 μM and/or ethionamide 1 μM, 72 hours) was “synergizes with EGFR inhibition”.
In the case of `NNC(=O)c1ccncc1` [INH, isoniazid], in the series on preclinical GBM models, the “tumor growth / efficacy in orthotopic experiments” value is given as “no effect”. Moreover, the exposure (AUC) in [1] (25 mg/kg QD for 4 wks) is 27.3 mg·h/L; in [2] (150 mg QD for 6 months), 19700 ng·h/mL. The Cmax in [1] (25 mg/kg QD for 4 wks) was 22 µg/mL; in series [2] (150 mg QD for 6 months), 4830 ng/mL. Besides, in the series with GBM12 cells [5], the “sensitization of cells to erlotinib, cell viability” value (“sensitization of cells to erlotinib” below) is on record as “sensitizes”. In addition, in the series on glioma cells, the “synergy with EGFR inhibition in cell survival assays” value is listed as “synergizes with EGFR inhibition”. Besides, the CNS penetration result in series [6] is on record as “highly CNS penetrable”.
`Cc1ccccc1C(=O)N1CCc2cc(-c3nc(NC(=O)Cc4ccc5c(c4)OCO5)sc3C)ccc21` [ML385]: in the series on GBM12 cells [5], the “sensitization of cells to erlotinib” value is reported as “sensitizes”.
For `O=C(O)c1cc(/N=N/c2ccc(S(=O)(=O)Nc3ccccn3)cc2)ccc1O` [sulfasalazine], the “AUC of SASP” value in [1] (67.5 mg/kg QD for 3 wks, analyte SASP) was “SASP: 21 μM * hr”. Also, in [1], the T½ is 0.9 h. The “sensitization of cells to erlotinib” value in the series with GBM12 cells [5] is recorded as “sensitizes”. In the series on glioma cells, the “synergy with EGFR inhibition in cell survival assays” value is reported as “synergizes with EGFR inhibition”. For the same compound, in [2] (setting [7]), the AUC result is listed as “(122 μM * hr”, the Cmax is 5351 ng/mL and the T½ was 9.8 h. For the same compound, the AUC in [2] (setting [8]) is on record as 48,500 ng * hr/ml.
etanercept: in the series with GBM12 cells [3] (setting [9]), the “block of the 40 NRF2 target genes induced by erlotinib” value was “could not be blocked” and the “upregulation of erlotinib induced genes blocked” value worked out at 25%.
